Experiments:
[1] = system: T-G8 (DNA, G4) AGGGTTATGGTTAGGGTTAGGG; assay: triplet decay, laser flash photolysis; conditions: 100 mM NaCl; 10 mM Tris-HCl, 1 mM EDTA, pH 7.5, room temperature; 2 μM ZnTMPyP4; intercalation 63%
[2] = system: (G4T4G4)2 (DNA, G4) GGGGTTTTGGGG; assay: UV-vis absorption titration; conditions: 100 mM NaCl; 10 mM Tris-HCl, 1 mM EDTA, pH 7.5, room temperature; 2 μM ZnTMPyP4
[3] = system: T-G10 (DNA, G4) AGGGTTAGGTTTAGGGTTAGGG; assay: triplet decay, laser flash photolysis; conditions: 100 mM NaCl; 10 mM Tris-HCl, 1 mM EDTA, pH 7.5, room temperature; 2 μM ZnTMPyP4; intercalation 53%
[4] = system: AG3(T2AG3)3 (DNA, G4) AGGGTTAGGGTTAGGGTTAGGG; assay: UV-vis absorption titration; conditions: 100 mM NaCl; 10 mM Tris-HCl, 1 mM EDTA, pH 7.5, room temperature; 2 μM ZnTMPyP4
(TG4T)4 (DNA, G4) TGGGGT = assay: UV-vis absorption titration; conditions: 100 mM KCl; 10 mM Tris-HCl, 1 mM EDTA, pH 7.5, room temperature; 2 μM ZnTMPyP4

C[n+]1ccc(-c2c3nc(c(-c4cc[n+](C)cc4)c4ccc([n-]4)c(-c4cc[n+](C)cc4)c4nc(c(-c5cc[n+](C)cc5)c5ccc2[n-]5)C=C4)C=C3)cc1.O.[Zn+2]
binding [1]: yes | binding constants [2]: 100000 M⁻¹ | binding [3]: yes | binding constants [4]: 3.6e+06 M⁻¹ | binding constants ((TG4T)4 (DNA, G4) TGGGGT): 1e+06 M⁻¹
